Consider three molecules from patent US5188955A, “Method of preserving arylacylamidase in aqueous solution” (GDS Technology, Inc., priority 1992, dated 1993).

“Also recorded” adds a separate entry of the source. Where two headings read alike, the source gives them in different places.

Holding throughout (assay type): biochemical
One data set relates to arylacylamidase. Kind of data set: General findings on effect of stabilizers on arylacylamidase.
Data set [1] relates to arylacylamidase E.C. 3.5.1.13. Kind of data set: Stability of aqueous arylacylamidase solution at 37° C. with or without o-cresol (Example 1). The note with it: for Remaining enzyme activity: 37° C. How it is done:
(§1) Arylacylamidase enzyme was dissolved in water containing 50 mM borate buffer at various pH's at widely different concentrations of between 1 and 1500 U/L in the presence of between 1 and 12 mM o-cresol. The same solution of enzyme in buffer was prepared without o-cresol. Both sets of solutions were maintained at 37° C. for a period of two weeks. The enzyme activity was measured at the beginning of the period, as well as at certain times during the two week period. The enzyme activity was determined by a method which uses 50 mM Tris.HCl, pH 8.5, and 1 mM paranitroacetanilide as the enzyme substrate. In the presence of arylacylamidase, the p.nitroacetanilide is hydrolyzed to p-nitroaniline which absorbs at 405 nm. The kinetic assay was performed at 30° C. and 405 nm. One unit of enzyme activity is defined as 1 μ mole of p.nitroaniline formed using p-nitroacetanilide as a substrate at 30° C.

In data set [2] the test system is arylacylamidase E.C. 3.5.1.13. Kind of data set: Stability of arylacylamidase dried on paper strips with or without o-cresol (Example 2). The note with it: 37° C., two weeks. How it is done:
as §1
Two arylacylamidase aqueous solutions of 100 U/L were prepared in water containing 50 mM borate buffer, pH 8.0, one in the presence of 10 mM o-cresol and one in the absence of o-cresol. Whatman 54 and Whatman 3MM paper strips (2"×12") were impregnated with these solutions and dried. The dried paper strips were stored at 37° C. for two weeks. […] The enzyme activity was measured using the assay described in Example 1.

Data set [3] deals with arylacylamidase E.C. 3.5.1.13. The following applies: 37° C., two weeks.
For data set [4], the system named is arylacylamidase E.C. 3.5.1.13. The following applies: Arylacylamidase 21.6 U/mL with 1 mg/mL sodium benzoate, 10 mM Tris-HCl pH 7.0. How it is done:
as §1
The arylacylamidase was dissolved in an aqueous buffer, such as in 10 mM Tris-HCl, pH 7.0, in the presence of 1 mg/ml sodium benzoate and in the absence of sodium benzoate.
The samples were maintained at 4° C., room temperature, and 37° C. The residual activity was determined using the enzyme assay described in Example 1.

Data set [5] relates to arylacylamidase E.C. 3.5.1.13. The following applies: 10 mM Tris-HCl pH 7.0. As for the experimental part:
as §1
An aqueous solutiOn of arylacylamidase, from about 100-200 U/mL, in 10 mM Tris-HCl buffer, which was maintained at pH 7.0, was lyophilized in the presence of various amounts of sodium benzoate and in the absence of sodium benzoate. After lyophilization, the enzyme samples were dissolved in deionized water to make an aqueous enzyme solution of 100 U/mL of water, and assayed for enzyme activity using the assay described in Example 1.

In the case of `Cc1ccccc1O` [o-cresol], the “use as substrate / inhibition of arylacylamidase activity” value in the data set with arylacylamidase is recorded as “neither compound is used by the enzyme as a substrate nor causes inhibition of the activity of arylacylamidase”. For the same molecule, the “effect on stability of the enzyme” value in the data set with arylacylamidase (10-100 mg/ml of ortho-cresol) is “enhances the stability of the enzyme”. Besides, the “effect on the enzyme” value in the data set on arylacylamidase (higher concentrations of ortho-cresol, on the order of about 1%) is “inactivate the enzyme and make it unstable”. In the data set with arylacylamidase (o-cresol concentrations above about 0.5%), the “effect on stability of arylacylamidase” value is “specifically destabilizes arylacylamidase; also recorded: act to destabilize the arylacylamidase enzyme”. Also, the Remaining enzyme activity stood at 13.6 U/ML in data set [1] (pH 8.0, 2.8 mM o-cresol, 0 HRS); 13.6 U/ML in data set [1] (pH 8.0, 2.8 mM o-cresol, 3 DAYS); 13.5 U/ML in data set [1] (pH 8.0, 2.8 mM o-cresol, 5 HRS); 12.3 U/ML in data set [1] (pH 8.0, 2.8 mM o-cresol, 7 DAYS); 11.8 U/ML in data set [1] (pH 8.0, 2.8 mM o-cresol, 14 DAYS); 6.25 U/ML in data set [1] (pH 8.0, 4.2 mM o-cresol, 0 HRS). Also, the Remaining enzyme activity in data set [1] (pH 8.0, 4.2 mM o-cresol, 3 DAYS) was found to be 6.20 U/ML; in data set [1] (pH 8.0, 4.2 mM o-cresol, 5 HRS), 6.16 U/ML; in data set [1] (pH 8.0, 4.2 mM o-cresol, 7 DAYS), 5.66 U/ML; in data set [1] (pH 8.0, 4.2 mM o-cresol, 14 DAYS), 5.36 U/ML; in data set [1] (pH 9.0, 2.2 mM o-cresol, 0 HRS) it was 13.6 U/ML; in data set [1] (pH 9.0, 2.2 mM o-cresol, 3 DAYS), 11.2 U/ML. Further, the Remaining enzyme activity was found to be 13.7 U/ML in data set [1] (pH 9.0, 2.2 mM o-cresol, 5 HRS); 9.26 U/ML in data set [1] (pH 9.0, 2.2 mM o-cresol, 7 DAYS); 5.44 U/ML in data set [1] (pH 9.0, 2.2 mM o-cresol, 14 DAYS); 6.15 U/ML in data set [1] (pH 9.0, 3.75 mM o-cresol, 0 HRS); 5.03 U/ML in data set [1] (pH 9.0, 3.75 mM o-cresol, 3 DAYS); 6.20 U/ML in data set [1] (pH 9.0, 3.75 mM o-cresol, 5 HRS). For the same molecule, the Remaining enzyme activity in data set [1] (pH 9.0, 3.75 mM o-cresol, 7 DAYS) is recorded as 4.16 U/ML; in data set [1] (pH 9.0, 3.75 mM o-cresol, 14 DAYS) it was 2.36 U/ML. Further, the “activity of aqueous solution of arylacylamidase maintained” value in data set [1] (pH 8.0, 14 days at 37° C., 2.8 mM o-cresol) was “over 80%”. Further, the “Residual Activity (Recovery)” value in data set [2] (Strips of Whatman 3 MM, 10 mM o-cresol) stood at 40%; in data set [2] (Strips of Whatman 54, 10 mM o-cresol) it was 70%.
For the molecule `O=C(O)c1ccccc1` [sodium benzoate], the “Residual Activity (Recovery)” value in data set [3] (Strips of Whatman 3 MM, 10 mM sodium benzoate) amounted to 70%. The “Residual Activity (Recovery)” value in data set [3] (Strips of Whatman 54, 10 mM sodium benzoate) turned out to be 85%. For the same molecule, in data set [4], the “Remaining Activity at 4° C. (8 days)” value turned out to be 80%, the “Remaining Activity at 37° C. (1 day)” value is reported as 85%, the “Remaining Activity at 37° C. (4 days)” value is listed as 30% and the “Remaining Activity at Room Temp (8 days)” value stood at 71%. Besides, in data set [5] (1 mM sodium benzoate), the “% Recovery After Lyophilization” value amounted to 75%. For the same molecule, in data set [5] (5 mM sodium benzoate), the “% Recovery After Lyophilization” value is recorded as 95%. For the same molecule, the “% Recovery After Lyophilization” value in data set [5] (10 mM sodium benzoate) is on record as 104%.
Regarding `O=C(O)c1ccccc1` [benzoic acid], in the data set with arylacylamidase, the “use as substrate / inhibition of arylacylamidase activity” value is listed as “neither compound is used by the enzyme as a substrate nor causes inhibition of the activity of arylacylamidase”.
